Data: patent US20260209249A1, “NOVEL TRICYCLIC COMPOUND AS KRAS G12D INHIBITOR, AND USE THEREOF” (SK Biopharmaceuticals Co., priority 2022, published 2026)

Experiments:
[1] = target: T1, GDP-KRAS G12D mutant protein (Homo sapiens, UniProt P01116, G12D); test: Differential scanning fluorimetry (DSF) binding affinity to GDP-KRAS G12D mutant protein; settings: DSF thermal shift, 10 μM compound, 4 μg KRAS protein
T1 construct: purchased Daegu Gyeongbuk Medical Innovation Foundation (DGMIF), made to order
Protocol: (§1) Test Example 1: Measurement of Binding Affinity to KRAS G12D Mutant Protein The binding affinities of the compounds according to one embodiment of the present application to the KRAS G12D mutant protein were evaluated using differential scanning fluorimetry (DSF). Differential scanning fluorimetry (DSF) is a method used to study the stability of a protein upon binding to a compound. The experiment can be performed using a real-time PCR (RT-PCR) instrument, and is commonly employed as a screening technique for small-molecule compounds targeting specific proteins. As the temperature increases, folded proteins begin to unfold, during which a hydrophobic dye such as SYPRO Orange binds to the exposed hydrophobic regions of the protein, resulting in a measurable increase in fluorescence intensity (maximum absorption at 470 nm and maximum emission at 570 nm). Protein-compound binding is determined by the difference in the melting temperature (Tm) of the protein in the presence of the compound compared to the Tm in the absence of the compound, expressed as ΔTm. The binding affinity to the KRAS G12D mutant protein was measured using the Protein Thermal Shift Dye kit (#4461146, Applied Biosystems). The GDP-KRAS G12D mutant protein and GppNHp-KRAS G12D mutant protein used in the experiment were recombinant proteins synthesized by the Daegu Gyeongbuk Medical Innovation Foundation (DGMIF) upon request. The analysis of binding between the compound and the KRAS G12D mutant protein was performed according to the following reaction recipe: each test sample contained 4 μg of KRAS protein, 10 μM of the compound, and 2×SYPRO Orange dye. For the GDP-KRAS G12D protein samples, the buffer provided with the Protein Thermal Shift Dye kit was used, while for the GppNHp-KRAS G12D protein samples, 50 mM HEPES (pH 7.5) buffer was used. For the protein-compound binding reaction, the compound was added to the KRAS G12D mutant protein and reacted at room temperature for 30 minutes, followed by the addition of 2×SYPRO Orange dye. The temperature was increased to 25° C.-99° C. (0.05° C./s) using QuantStudiol RT-PCR instrument (Applied Biosystems), and fluorescence was measured using a ROX reporter with filters of 580±10 nm (excitation)/623±14 nm (emission). The measurements obtained at a compound concentration of 10 μM were analyzed using the Protein Thermal Shift Software program (version v1.4, Thermo Fisher Scientific), and the ΔTm (° C.) values, which indicate the binding affinity of the compound to the KRAS G12D mutant protein, were calculated. The DSF measurement results for the compounds according to one embodiment of the present application with respect to the KRAS G12D mutant protein are shown in Table 2.

[2] = target: T2, GppNHp-KRAS G12D mutant protein (Homo sapiens, UniProt P01116, G12D); test: Differential scanning fluorimetry (DSF) binding affinity to GppNHp-KRAS G12D mutant protein; settings: DSF thermal shift, 10 μM compound, 4 μg KRAS protein, 50 mM HEPES (pH 7.5)
T2 construct: purchased Daegu Gyeongbuk Medical Innovation Foundation (DGMIF), made to order
Protocol: as §1

| SMILES | GDP-KRAS G12D (ΔTmD, ° C.) [1] [°C] | GppNHp-KRAS G12D (ΔTmD, ° C.) [2] [°C] |
| --- | --- | --- |
| C#Cc1c(F)ccc2cc(N)cc(-c3cc4nc(OC[C@@]56CCCN5C[C@H](F)C6)nc(N5C[C@H]6CC[C@@H](C5)N6)c4n4ccnc34)c12 [Example 24, 4-(1-((1R,5S)-3,8-diazabicyclo[3.2.1]octan-3-yl)-3-(((2R,7aS)-2-fluorotetrahydro-1H-pyrrolizin-7a(5H)-yl)methoxy)imidazo[1′,2′:1,6]pyrido[3,2-d]pyrimidin-6-yl)-5-ethynyl-6-fluoronaphthalen-2-amine] | 5.48 | 2.07 |
| CCc1c(F)ccc2cc(O)cc(-c3cc4nc(OC[C@@]56CCCN5C[C@H](F)C6)nc(NCC5(N(C)C)CCC5)c4n4ccnc34)c12 [Example 4, 4-(1-(((1-(dimethylamino)cyclobutyl)methyl)amino)-3-(((2R,7aS)-2-fluorotetrahydro-1H-pyrrolizin-7a(5H)-yl)methoxy)imidazo[1′,2′:1,6]pyrido[3,2-d]pyrimidin-6-yl)-5-ethyl-6-fluoronaphthalen-2-ol] | 1.90 | 0.57 |
| C#Cc1c(F)ccc2cc(N)cc(-c3cc4nc(OC[C@@]56CCCN5C/C(=C\F)C6)nc(N5C[C@H]6CC[C@@H](C5)N6)c4n4ccnc34)c12 [Example 36, 4-(1-((1R,5S)-3,8-diazabicyclo[3.2.1]octan-3-yl)-3-(((S,Z)-2-(fluoromethylene)tetrahydro-1H-pyrrolizin-7a(5H)-yl)methoxy)imidazo[1′,2′:1,6]pyrido[3,2-d]pyrimidin-6-yl)-5-ethynyl-6-fluoronaphthalen-2-amine] | 7.57 | 3.42 |
| Cn1cc2c(n1)c(-c1cc(O)cc3ccc(F)c(F)c13)cc1nc(OC[C@@]34CCCN3C/C(=C\F)C4)nc(N3C[C@H]4CC[C@@H](C3)N4)c12 [Example 84, 4-(9-((1R,5S)-3,8-diazabicyclo[3.2.1]octan-3-yl)-7-(((S,Z)-2-(fluoromethylene)tetrahydro-1H-pyrrolizin-7a(5H)-yl)methoxy)-2-methyl-2H-pyrazolo[4,3-f]quinazolin-4-yl)-5,6-difluoronaphthalen-2-ol] | 8.13 | 4.13 |
| Cc1cc2c(o1)c(-c1ccc(F)c3sc(N)nc13)c(F)c1nc(OC[C@@]34CCCN3C[C@H](F)C4)nc(N3C[C@H]4CC[C@@H](C3)N4)c12 [Example 55, 4-(1-((1R,5S)-3,8-diazabicyclo[3.2.1]octan-3-yl)-5-fluoro-3-(((2R,7aS)-2-fluorotetrahydro-1H-pyrrolizin-7a(5H)-yl)methoxy)-8-methylfuro[3,2-n]quinazolin-6-yl)-7-fluorobenzo[d]thiazol-2-amine] | 3.24 | 1.91 |
| C#Cc1c(F)ccc2cc(O)cc(-c3cc4nc(OCC5(CN6CC[C@@H](F)C6)CCC5)nc(N5C[C@H]6CC[C@@H](C5)N6)c4n4ccnc34)c12 [Example 40, 4-(1-((1R,5S)-3,8-diazabicyclo[3.2.1]octan-3-yl)-3-((1-(((R)-3-fluoropyrrolidin-1-yl)methyl)cyclobutyl)methoxy)imidazo[1′,2′:1,6]pyrido[3,2-d]pyrimidin-6-yl)-5-ethynyl-6-fluoronaphthalen-2-ol] | 5.95 | 0.61 |
| C#Cc1c(F)ccc2cccc(-c3cc4nc(OC[C@@]56CCCN5C[C@H](F)C6)nc(N5C[C@H]6CC[C@@H](C5)N6)c4n4ccnc34)c12 [Example 28, 1-((1R,5S)-3,8-diazabicyclo[3.2.1]octan-3-yl)-6-(8-ethynyl-7-fluoronaphthalen-1-yl)-3-(((2R,7aS)-2-fluorotetrahydro-1H-pyrrolizin-7a(5H)-yl)methoxy)imidazo[1′,2′:1,6]pyrido[3,2-d]pyrimidine] | 3.53 | 0.27 |
| Cc1cc2[nH]ncc2c(-c2cc3nc(OC[C@@]45CCCN4C[C@H](F)C5)nc(N4[C@@H]5CC[C@H]4CNC5)c3n3ccnc23)c1C(F)(F)F [Example 18, 1-((1 R,5S)-3,8-diazabicyclo[3.2.1]octan-8-yl)-3-(((2R,7aS)-2-fluorotetrahydro-1H-pyrrolizin-7a(5H)-yl)methoxy)-6-(6-methyl-5-(trifluoromethyl)-1H-indazol-4-yl)imidazo[1′,2′:1,6]pyrido[3,2-d]pyrimidine] | 2.35 | 1.01 |
| Cc1cc2c(o1)c(-c1cccc3sc(N)nc13)c(F)c1nc(OC[C@@]34CCCN3C[C@H](F)C4)nc(N3CC4CCC(C3)N4)c12 [Example 54, 4-(1-((1R,5S)-3,8-diazabicyclo[3.2.1]octan-3-yl)-5-fluoro-3-(((2R,7aS)-2-fluorotetrahydro-1H-pyrrolizin-7a(5H)-yl)methoxy)-8-methylfuro[3,2-n]quinazolin-6-yl)benzo[d]thiazol-2-amine] | 2.95 | 1.61 |
| Cc1cc(N)nc(-c2cc3nc(OC[C@@]45CCCN4C[C@H](F)C5)nc(N4[C@@H]5CC[C@H]4CNC5)c3n3ccnc23)c1C(F)(F)F [Example 20, 6-(1-((1R,5S)-3,8-diazabicyclo[3.2.1]octan-8-yl)-3-(((2R,7aS)-2-fluorotetrahydro-1H-pyrrolizin-7a(5H)-yl)methoxy)imidazo[1′,2′:1,6]pyrido[3,2-d]pyrimidin-6-yl)-4-methyl-5-(trifluoromethyl)pyridin-2-amine] | −0.17 | 0.27 |
| C#Cc1c(F)ccc2cc(O)cc(-c3cc4nc(OC[C@]56CC(=C)CN5C[C@@H](F)C6)nc(N5C[C@H]6CC[C@@H](C5)N6)c4n4ccnc34)c12 [Example 32, 4-(1-((1R,5S)-3,8-diazabicyclo[3.2.1]octan-3-yl)-3-(((2S,7aR)-2-fluoro-6-methylenetetrahydro-1H-pyrrolizin-7a(5H)-yl)methoxy)imidazo[1′,2′:1,6]pyrido[3,2-d]pyrimidin-6-yl)-5-ethynyl-6-fluoronaphthalen-2-ol] | 9.05 | 4.04 |
| C#Cc1c(F)ccc2cc(O)cc(-c3cc4nc(OCC5(CN6CC[C@@H](F)C6)CC5)nc(N5C[C@H]6CC[C@@H](C5)N6)c4n4ccnc34)c12 [Example 30, 4-(1-((1R,5S)-3,8-diazabicyclo[3.2.1]octan-3-yl)-3-((1-(((R)-3-fluoropyrrolidin-1-yl)methyl)cyclopropyl)methoxy)imidazo[1′,2′:1,6]pyrido[3,2-d]pyrimidin-6-yl)-5-ethynyl-6-fluoronaphthalen-2-ol] | 8.12 | 2.81 |
| Nc1c(F)c(F)c(F)c(-c2cc3nc(OC[C@@]45CCCN4C[C@H](F)C5)nc(N4C[C@H]5CC[C@@H](C4)N5)c3n3ccnc23)c1F [Example 13, 3-(1-((1R,5S)-3,8-diazabicyclo[3.2.1]octan-3-yl)-3-(((2R,7aS)-2-fluorotetrahydro-1H-pyrrolizin-7a(51H)-yl)methoxy)imidazo[1′,2′:1,6]pyrido[3,2-d]pyrimidin-6-yl)-2,4,5,6-tetrafluoroaniline] | 0.28 | −0.61 |
